From patent US7750003B2, “Compounds-943” (AstraZeneca AB, priority 2006, dated 2010) come the findings set out here.

recombinant mTOR (FLAG-tagged, residues 1362-2549), sequence (P42345 1362-2549): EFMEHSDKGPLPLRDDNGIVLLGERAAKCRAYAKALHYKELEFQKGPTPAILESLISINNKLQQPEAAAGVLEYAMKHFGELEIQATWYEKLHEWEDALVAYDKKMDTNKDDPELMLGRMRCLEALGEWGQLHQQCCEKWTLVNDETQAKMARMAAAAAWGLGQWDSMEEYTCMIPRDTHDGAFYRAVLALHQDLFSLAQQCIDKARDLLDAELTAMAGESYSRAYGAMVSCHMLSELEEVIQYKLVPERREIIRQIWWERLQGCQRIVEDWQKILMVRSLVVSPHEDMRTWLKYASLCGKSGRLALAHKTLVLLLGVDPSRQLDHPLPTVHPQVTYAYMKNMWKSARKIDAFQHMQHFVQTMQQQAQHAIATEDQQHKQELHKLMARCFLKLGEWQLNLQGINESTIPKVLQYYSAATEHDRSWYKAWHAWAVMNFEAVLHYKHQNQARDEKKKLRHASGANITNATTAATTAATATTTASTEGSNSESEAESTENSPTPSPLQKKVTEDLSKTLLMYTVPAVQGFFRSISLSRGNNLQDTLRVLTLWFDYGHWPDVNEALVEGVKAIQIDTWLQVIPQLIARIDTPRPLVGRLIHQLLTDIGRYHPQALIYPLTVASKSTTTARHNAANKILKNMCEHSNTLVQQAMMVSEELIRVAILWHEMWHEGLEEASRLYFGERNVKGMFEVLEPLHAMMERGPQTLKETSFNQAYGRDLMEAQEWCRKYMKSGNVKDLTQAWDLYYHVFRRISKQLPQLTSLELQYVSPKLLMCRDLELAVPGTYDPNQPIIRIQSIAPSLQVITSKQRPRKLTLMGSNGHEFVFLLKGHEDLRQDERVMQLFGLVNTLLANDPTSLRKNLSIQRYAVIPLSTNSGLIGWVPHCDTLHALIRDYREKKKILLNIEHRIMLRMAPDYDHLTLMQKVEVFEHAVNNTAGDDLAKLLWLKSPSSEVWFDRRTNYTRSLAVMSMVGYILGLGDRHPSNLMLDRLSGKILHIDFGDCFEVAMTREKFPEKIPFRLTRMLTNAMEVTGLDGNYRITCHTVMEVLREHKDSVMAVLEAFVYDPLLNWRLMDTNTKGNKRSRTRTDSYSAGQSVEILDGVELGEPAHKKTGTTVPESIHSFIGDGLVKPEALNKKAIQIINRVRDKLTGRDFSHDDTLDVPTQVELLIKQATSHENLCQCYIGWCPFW

The target of this assay is recombinant mTOR (FLAG-tagged, residues 1362-2549) (Homo sapiens, UniProt P42345). In words: In vitro mTOR kinase assay (Test (a), AlphaScreen). It is filed as biochemical. The settings on record: ATP 20 μM, read-out: Test (a): IC50 versus mTOR kinase. In outline:
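AlphaScreen read-out: a phospho-T389 p70 S6K antibody on acceptor beads captures the phosphorylated biotin-peptide on donor beads, with signal loss indicating inhibition.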
For the molecule `C[C@H]1COCCN1c1cc(CN(C)CCO)nc(-c2ccc(NC(=O)NC3CC3)cc2)n1` [Example 49a, 3-cyclopropyl-1-[4-[4-[(2-hydroxyethyl-methyl-amino)methyl]-6-[(3S)-3-methylmorpholin-4-yl]pyrimidin-2-yl]phenyl]urea], the IC50 came out at 150 nM.
In the case of `Cc1cc(NC(=O)Nc2ccc(-c3nc(CS(C)(=O)=O)cc(N4CCOC[C@@H]4C)n3)cc2)no1` [Example 22d, 3-[4-[4-[(3S)-3-methylmorpholin-4-yl]-6-(methylsulfonylmethyl)pyrimidin-2-yl]phenyl]-1-(5-methyl-1,2-oxazol-3-yl)urea] it was 4.8 nM; in that of `CC(C)NC(=O)Nc1cccc(-c2nc(CS(C)(=O)=O)cc(N3CCOC[C@@H]3C)n2)c1` [Example 8g, 1-[3-[4-[(3S)-3-Methylmorpholin-4-yl]-6-(methylsulfonylmethyl)pyrimidin-2-yl]phenyl]-3-propan-2-yl-urea], 960 nM; in that of `CNC(=O)Nc1c(F)cc(-c2nc(N3CCOC[C@@H]3C)cc(C(C)(C)S(C)(=O)=O)n2)cc1F` [Example 24ab, 1-[2,6-difluoro-4-[4-[(3S)-3-methylmorpholin-4-yl]-6-(2-methylsulfonylpropan-2-yl)pyrimidin-2-yl]phenyl]-3-methyl-urea], 42 nM.
On to `CNC(=O)Nc1ccc(-c2nc(CS(=O)(=O)c3ccccn3)cc(N3CCOC[C@@H]3C)n2)cc1` [Example 33f, 3-methyl-1-[4-[4-[(3S)-3-methylmorpholin-4-yl]-6-(pyridin-2-ylsulfonylmethyl)pyrimidin-2-yl]phenyl]urea], for which the IC50 came out at 270 nM.
With `C[C@H]1COCCN1c1cc(CNCCCN(C)C)nc(-c2ccc(NC(=O)NC3CC3)cc2)n1` [Example 49e, 3-cyclopropyl-1-[4-[4-[(3-dimethylaminopropylamino)methyl]-6-[(3S)-3-methylmorpholin-4-yl]pyrimidin-2-yl]phenyl]urea] the figure was 32 nM; with `CNC(=O)Nc1ccc(-c2nc(CS(=O)(=O)c3ccccc3OC)cc(N3CCOC[C@@H]3C)n2)cc1` [Example 33b, 1-[4-[4-[(2-methoxyphenyl)sulfonylmethyl]-6-[(3S)-3-methylmorpholin-4-yl]pyrimidin-2-yl]phenyl]-3-methyl-urea], 66 nM; with `CS(=O)(=O)Cc1cc(N2CCOCC2)nc(-c2ccc(NC(=O)Nc3ccc(C(F)(F)F)cc3)cc2)n1` [Example 7c, 1-[4-[4-(methylsulfonylmethyl)-6-morpholin-4-yl-pyrimidin-2-yl]phenyl]-3-[4-(trifluoromethyl)phenyl]urea], 1700 nM.
With `CC(CO)NC(=O)Nc1ccc(-c2nc(CS(C)(=O)=O)cc(N3CCOC[C@@H]3C)n2)cc1` (stereo partly drawn) [Example 35, 3-(1-Hydroxypropan-2-yl)-1-[4-[4-[(3S)-3-methylmorpholin-4-yl]-6-(methylsulfonylmethyl)pyrimidin-2-yl]phenyl]urea] the figure was 64 nM; with `CNC(=O)NC1CCN(c2nc(N3CCOC[C@@H]3C)cc(C(C)(C)S(C)(=O)=O)n2)CC1` [Example 24n, 3-methyl-1-[1-[4-[(3S)-3-methylmorpholin-4-yl]-6-(2-methylsulfonylpropan-2-yl)pyrimidin-2-yl]-4-piperidyl]urea], 3200 nM.
With `CCNC(=O)Nc1ccc(-c2nc(CS(=O)(=O)c3ccccc3)cc(N3CCOCC3)n2)cc1` [Example 20a, 3-[4-[4-(benzenesulfonylmethyl)-6-morpholin-4-yl-pyrimidin-2-yl]phenyl]-1-ethyl-urea] the figure was 150 nM; with `C[C@H]1COCCN1c1cc(CNCCN(C)C)nc(-c2ccc(NC(=O)NC3CC3)cc2)n1` [Example 49g, 3-cyclopropyl-1-[4-[4-[(2-dimethylaminoethylamino)methyl]-6-[(3S)-3-methylmorpholin-4-yl]pyrimidin-2-yl]phenyl]urea], 87 nM.
With `COCCNCc1cc(N2CCOC[C@@H]2C)nc(-c2ccc(NC(=O)NC3CC3)cc2)n1` [Example 49c, 3-cyclopropyl-1-[4-[4-[(2-methoxyethylamino)methyl]-6-[(3S)-3-methylmorpholin-4-yl]pyrimidin-2-yl]phenyl]urea], the IC50 worked out at 40 nM.
On to `CCNC(=O)Nc1ccc(-c2nc(CS(C)(=O)=O)cc(N3CCOC[C@@H]3C)n2)cc1` [Example 1, 1-Ethyl-3-[4-[4-[(3S)-3-methylmorpholin-4-yl]-6-(methylsulfonylmethyl)pyrimidin-2-yl]phenyl]urea], for which the IC50 worked out at 6.2 nM.
With `CS(=O)(=O)Cc1cc(N2CCOCC2)nc(-c2ccc(NC(=O)N3CCCC3)cc2)n1` [Example 45f, N-[4-[4-(methylsulfonylmethyl)-6-morpholin-4-yl-pyrimidin-2-yl]phenyl]pyrrolidine-1-carboxamide] the figure was 1600 nM; with `C[C@H]1COCCN1c1cc(CS(C)(=O)=O)nc(-c2cnc(NC(=O)Nc3cnn(C)c3)s2)n1` [Example 46h, 1-[5-[4-[(3S)-3-methylmorpholin-4-yl]-6-(methylsulfonylmethyl)pyrimidin-2-yl]-1,3-thiazol-2-yl]-3-(1-methylpyrazol-4-yl)urea], 63 nM; with `C[C@H]1COCCN1c1cc(C(C)(C)S(C)(=O)=O)nc(-c2cnc(NC(=O)NC3CC3)s2)n1` [Example 47a, 3-cyclopropyl-1-[5-[4-[(3S)-3-methylmorpholin-4-yl]-6-(2-methylsulfonylpropan-2-yl)pyrimidin-2-yl]-1,3-thiazol-2-yl]urea], 1200 nM.
With `C[C@H]1COCCN1c1cc(CS(C)(=O)=O)nc(-c2ccc(NC(=O)N3CCC(N(C)C)CC3)cc2)n1` [Example 45ab, 4-dimethylamino-N-[4-[4-[(3S)-3-methylmorpholin-4-yl]-6-(methylsulfonylmethyl)pyrimidin-2-yl]phenyl]piperidine-1-carboxamide] the figure was 390 nM.
In the case of `CS(=O)(=O)Cc1cc(N2CCOCC2)nc(-c2ccc(NC(=O)NC3CCCCC3)cc2)n1` [Example 7l, 3-cyclohexyl-1-[4-[4-(methylsulfonylmethyl)-6-morpholin-4-yl-pyrimidin-2-yl]phenyl]urea] it was 7000 nM; in that of `C[C@H]1COCCN1c1cc(CS(C)(=O)=O)nc(-n2ccc(NC(=O)Nc3ccc(F)cc3)n2)n1` [Example 25b, 3-(4-fluorophenyl)-1-[1-[4-[(3S)-3-methylmorpholin-4-yl]-6-(methylsulfonylmethyl)pyrimidin-2-yl]pyrazol-3-yl]urea], 4400 nM.
As to `C[C@H]1COCCN1c1cc(C(C)(C)S(C)(=O)=O)nc(-c2ccc(NC(=O)NCCN(C)C)cc2)n1` [Example 21i, 3-(2-dimethylaminoethyl)-1-[4-[4-[(3S)-3-methylmorpholin-4-yl]-6-(2-methylsulfonylpropan-2-yl)pyrimidin-2-yl]phenyl]urea], the IC50 was 76 nM.
In the case of `Cc1csc(S(=O)(=O)Cc2cc(N3CCOC[C@@H]3C)nc(-c3ccc(NC(=O)NC4CC4)cc3)n2)n1` [Example 43i, 3-cyclopropyl-1-[4-[4-[(3S)-3-methylmorpholin-4-yl]-6-[(4-methyl-1,3-thiazol-2-yl)sulfonylmethyl]pyrimidin-2-yl]phenyl]urea] it was 58 nM; in that of `C[C@H]1COCCN1c1cc(CS(C)(=O)=O)nc(-c2ccc(NC(=O)Nc3ccccc3)c(Cl)c2)n1` [Example 3b, 1-[2-Chloro-4-[4-[(3S)-3-methylmorpholin-4-yl]-6-(methylsulfonylmethyl)pyrimidin-2-yl]phenyl]-3-phenyl-urea], 440 nM.
In the case of `C[C@H]1COCCN1c1cc(CS(C)(=O)=O)nc(-c2ccc(NC(=O)N3CCCC(O)C3)cc2)n1` (stereo partly drawn) [Example 35i, 3-hydroxy-N-[4-[4-[(3S)-3-methylmorpholin-4-yl]-6-(methylsulfonylmethyl)pyrimidin-2-yl]phenyl]piperidine-1-carboxamide] it was 770 nM; in that of `CN(Cc1ccccc1)C(=O)Nc1ccc(-c2nc(CS(C)(=O)=O)cc(N3CCOCC3)n2)cc1` [Example 45r, 1-benzyl-1-methyl-3-[4-[4-(methylsulfonylmethyl)-6-morpholin-4-yl-pyrimidin-2-yl]phenyl]urea], 410 nM.
With `C[C@H]1COCCN1c1cc(CS(C)(=O)=O)nc(-c2ccc(NC(=O)NC3CC3)nc2)n1` [Example 24r, 3-cyclopropyl-1-[5-[4-[(3S)-3-methylmorpholin-4-yl]-6-(methylsulfonylmethyl)pyrimidin-2-yl]pyridin-2-yl]urea] the figure was 340 nM; with `C[C@H]1COCCN1c1cc(COC2CCN(C)CC2)nc(-c2ccc(NC(=O)Nc3ccccc3)cc2)n1` [Example 31, 1-[4-[4-[(3S)-3-Methylmorpholin-4-yl]-6-[(1-methyl-4-piperidyl)oxymethyl]pyrimidin-2-yl]phenyl]-3-phenyl-urea], 350 nM; with `CS(=O)(=O)Cc1cc(N2CCOCC2)nc(-c2ccc(NC(N)=O)cc2)n1` [Example 34, [4-[4-(Methylsulfonylmethyl)-6-morpholin-4-yl-pyrimidin-2-yl]phenyl]urea], 210 nM.
In the case of `COCCNC(=O)Nc1ccc(-c2nc(CS(C)(=O)=O)cc(N3CCOC[C@@H]3C)n2)cc1` [Example 4d, 1-(2-methoxyethyl)-3-[4-[4-[(3S)-3-methylmorpholin-4-yl]-6-(methylsulfonylmethyl)pyrimidin-2-yl]phenyl]urea], the IC50 turned out to be 170 nM.
In the case of `C[C@H]1COCCN1c1cc(CS(=O)(=O)CC(N)=O)nc(-c2ccc(NC(=O)NCc3cnn(C)c3)cc2)n1` [Example 53a] it was 600 nM; in that of `COCCNC(=O)Nc1ccc(-c2nc(N3CCOC[C@@H]3C)cc(C(C)(C)S(C)(=O)=O)n2)cc1` [Example 21k, 3-(2-methoxyethyl)-1-[4-[4-[(3S)-3-methylmorpholin-4-yl]-6-(2-methylsulfonylpropan-2-l)pyrimidin-2-yl]phenyl]urea], 310 nM; in that of `C[C@H]1COCCN1c1cc(CN(C)C2CC2)nc(-c2ccc(NC(=O)Nc3ccccc3)cc2)n1` [Example 30d, 1-[4-[4-[(cyclopropyl-methyl-amino)methyl]-6-[(3S)-3-methylmorpholin-4-yl]pyrimidin-2-yl]phenyl]-3-phenyl-urea], 280 nM.
